Measurements taken from patent US11602533B2, “Crenolanib combination therapy” (Arog Pharmaceuticals, Inc., priority 2018, dated 2023).

Key:
[1] = Clinical tolerability of crenolanib, single agent and with chemotherapy; type: in vivo; details: single agent and combined with chemotherapy; most common adverse events gastrointestinal toxicities, elevated liver enzymes and bilirubin, edema/effusions
Excerpt: Unlike axitinib, VEGF/VEGFR antibodies are associated with minimal toxicity and the combination of these antibodies and chemotherapy is very well-tolerated. In particular, axinitinib monotherapy (in renal cancer patients) is associated with notable toxicities, including all-grade fatigue, anorexia, nausea, diarrhea and hand-foot syndrome in >25% of patients. Additionally, paclitaxel is less myelosuppressive than docetaxel. These improved toxicities support the combination of crenolanib and an alternative VEGFR inhibitor (including ramucirumab) in addition to and chemotherapy in patients with advanced cancers.

[2] = system: renal cancer patients; details: monotherapy; cited from earlier work
[3] = system: implanted tumors; details: mouse; cited from earlier work
[4] = system: gastric cancer; details: monotherapy; cited from earlier work
[5] = system: tumor interstitial pressure; details: rat model; cited from earlier work
[6] = system: tumors; details: treatment with imatinib; cited from earlier work

Compound: CC1(COc2ccc3c(c2)ncn3-c2ccc3cccc(N4CCC(N)CC4)c3n2)COC1 [crenolanib, 4-Piperidinamine, 1-[2-[5-[(3-methyl-3-oxetanyl)methoxy]-1H-benzimidazol-1-yl]-8-quinolinyl]]
- tolerability [1]: generally well tolerated

Compound: CNC(=O)c1ccccc1Sc1ccc2c(/C=C/c3ccccn3)n[nH]c2c1 [axinitinib]
- patients with all-grade fatigue, anorexia, nausea, diarrhea and hand-foot syndrome [2]: > 25%

Compound: Cc1cc(C)c(/C=C2\C(=O)Nc3ccccc32)[nH]1 [SU5416]
- effect on established tumor blood vessels [3]: failed to induce regression of established blood vessels
- effect on tumor growth [3]: prevented tumor growth

Compound: ramucirumab: antibody against VEGF receptor 2 (VEGFR2)
- progression-free survival (PFS) improvement over placebo [4]: 0.8 months
- response rate (RR) [4]: 3%

Compound: Cc1[nH]c(/C=C2\C(=O)Nc3ccccc32)c(C)c1CCC(=O)O [SU6668]
- effect on established tumor blood vessels [3]: regression of established tumor vessels
- effect on tumor growth [3]: suppression of tumor growth

Compound: Cc1ccc(NC(=O)c2ccc(CN3CCN(C)CC3)cc2)cc1Nc1nccc(-c2cccnc2)n1 [Imatinib]
- effect on capillary-to-interstitium transport of solutes [5]: increase the capillary-to-interstitium transport of solutes
- effect on interstitial hypertension [5]: decrease interstitial hypertension
- effect on anti-tumor effect of paclitaxel [6]: increased anti-tumor effect of paclitaxel
- effect on paclitaxel uptake by the tumors [6]: increased paclitaxel uptake by the tumors
